From patent publication US8637525B2, “Compounds for the reduction of beta-amyloid production” (Bristol-Myers Squibb Company, priority 2009, dated 2014)
Structures can show the parent of a compound that is named as a salt.

Test system: Aβ1-42 production
Experiment: Cellular assay for inhibition of Aβ1-42 production (H4 APP751 SWE clone 8.20)
Assay type: cell-based
Conditions: 19 h, H4 APP751 SWE clone 8.20 cells, 19 h incubation; class symbols; read-out: Activity Rating (Aβ42 cellular IC50)
Method: Cellular Assays for Inhibition of Aβ1-40 and Aβ1-42 Production
H4 cells stably transfected with APP751 containing the Swedish mutation (H4 APP751 SWE clone 8.20, developed at BMS) were maintained in log phase through twice weekly passage at a 1:20 split. […] Following incubation for 19 h in 5% CO2 at 37° C., plates were briefly centrifuged (1000 rpm, 5 min). A 10 μl aliquot from each well was transferred to a second assay plate (Costar 3709) for Aβ40 measurements. Antibody cocktails were freshly prepared by dilution into 40 mM Tris-HCl (pH 7.4) with 0.2% BSA and added to assay plates. For Aβ42 measurements, antibodies specific for the Aβ42 neoepitope (565, developed at BMS; conjugated to the Wallac reagent (Perkin Elmer)) and the N-terminal sequence of Aβ peptide (26D6, developed at SIBIA; conjugated to APC (Perkin Elmer)) were mixed and 20 μl of the mixture was added to each well of the incubated cell plate yielding a final concentration of 0.8 ng/well 565 and 75 ng/well 26D6. For the Aβ40 measurements, antibodies specific for the Aβ40 neoepitope (TSD, developed at BMS; conjugated to the Wallac reagent (Perkin Elmer)) and 26D6 as described above were mixed and 20 μl of the mixture was added to the 10 μl aliquots which had been removed previously from the cell plate yielding a final concentration of 1.6 ng/well TSD and 17.5 ng/well 26D6. Assay plates containing antibodies were sealed with aluminum foil and incubated overnight at 4° C. Signal was determined using a Viewlux counter (Perkin Elmer) and IC50 values determined using curve fitting in CurveMaster (Excel Fit based).

IC50	Compound
1.5 to 9.9 nM	CNc1nc(Nc2ccc(-n3cnc(Cl)c3)c(OC)c2)nc2c1CCC2c1ccc(F)cc1 (single isomer, unassigned) [Example 11B, N^2-(4-(4-Chloro-1H-imidazol-1-yl)-3-methoxyphenyl)-7-(4-fluorophenyl)-N^4-methyl-6,7-dihydro-5H-cyclopenta[d]pyrimidine-2,4-diamine]
10 to 100 nM	COc1cc(Nc2nc3c(c(N4CC(F)(F)C4)n2)CCC3c2ccc(F)cc2)ccc1-n1cnc(Cl)n1 (single isomer, unassigned) [Example 17B, N-(4-(3-chloro-1H-1,2,4-triazol-1-yl)-3-methoxyphenyl)-4-(3,3-difluoroazetidin-1-yl)-7-(4-fluorophenyl)-6,7-dihydro-5H-cyclopenta[d]pyrimidin-2-amine]
10 to 100 nM	COc1cc(Nc2nc3c(c(N4C[C@@H]5C[C@H]4CO5)n2)CCC3c2ccc(F)cc2)ccc1-n1cnc(Cl)c1 (single isomer, unassigned) [Example 18B]

Continued, compound first:

Compound	IC50
CCNc1nc(Nc2ccc(-n3cnc(Cl)c3)c(OC)c2)nc2c1COCC2c1ccc(C#N)cc1 (racemic) [Example 121, 4-(2-(4-(4-chloro-1H-imidazol-1-yl)-3-methoxyphenylamino)-4-(ethylamino)-7,8-dihydro-5H-pyrano[4,3-d]pyrimidin-8-yl)benzonitrile, TFA]	10 to 100 nM
CCN(C)c1nc(Nc2ccc(-n3cnc(Cl)c3)c(OC)c2)nc2c1CCCC2c1ccccc1 (racemic) [Example 124, N^2-(4-(4-Chloro-1H-imidazol-1-yl)-3-methoxyphenyl)-N^4-ethyl-N^4-methyl-8-phenyl-5,6,7,8-tetrahydroquinazoline-2,4-diamine]	10 to 100 nM
COc1cc(Nc2nc3c(c(N(C)C)n2)CCCC3c2ccc(F)cc2)ccc1-n1cnc(Cl)c1 (racemic) [Example 127, N^2-(4-(4-Chloro-1H-imidazol-1-yl)-3-methoxyphenyl)-8-(4-fluorophenyl)-N^4,N^4-dimethyl-5,6,7,8-tetrahydroquinazoline-2,4-diamine]	10 to 100 nM
CNc1nc(Nc2ccc(-n3cnc(Cl)c3)c(OC)c2)nc2c1CN(S(C)(=O)=O)CC2c1ccccc1 (racemic) [Example 129, N2-(4-(4-chloro-1H-imidazol-1-yl)-3-methoxyphenyl)-N4-methyl-6-(methylsulfonyl)-8-phenyl-5,6,7,8-tetrahydropyrido[4,3-d]pyrimidine-2,4-diamine]	10 to 100 nM
CNc1nc(Nc2ccc(-n3cnc(Cl)c3)c(OC)c2)nc2c1C(=O)CC2c1ccccc1 (racemic) [Example 200, (±)-2-(4-(4-chloro-1H-imidazol-1-yl)-3-methoxyphenylamino)-4-(methylamino)-7-phenyl-6,7-dihydro-5H-cyclopenta[d]pyrimidin-5-one]	10 to 100 nM

Same assay, conditions: 19 h, H4 APP751 SWE clone 8.20 cells, 19 h incubation; read-out: Activity Rating (Aβ42 cellular IC50), numeric value

IC50	Compound
120 nM	COc1cc(Nc2nc3c(c(N4CC(F)(F)C4)n2)CCC3c2ccc(F)cc2)ccc1-n1cnc(Cl)n1 (single isomer, unassigned) [Example 17A, N-(4-(3-chloro-1H-1,2,4-triazol-1-yl)-3-methoxyphenyl)-4-(3,3-difluoroazetidin-1-yl)-7-(4-fluorophenyl)-6,7-dihydro-5H-cyclopenta[d]pyrimidin-2-amine]
8.8 nM	COc1cc(Nc2nc3c(c(N4C[C@@H]5C[C@H]4CO5)n2)CCC3c2ccc(F)cc2)ccc1-n1cnc(Cl)c1 (single isomer, unassigned) [Example 18A]

Same assay, conditions: 19 h, H4 APP751 SWE clone 8.20 cells, 19 h incubation; read-out: Activity Rating (Aβ42 cellular IC50), numeric value printed without unit

IC50	Compound
3.8 nM	CNc1nc(Nc2ccc(-n3cnc(Cl)c3)c(OC)c2)nc2c1CCC2c1ccc(F)cc1 (single isomer, unassigned) [Example 11A, N^2-(4-(4-Chloro-1H-imidazol-1-yl)-3-methoxyphenyl)-7-(4-fluorophenyl)-N^4-methyl-6,7-dihydro-5H-cyclopenta[d]pyrimidine-2,4-diamine]

Same assay, conditions: H4 APP751 SWE clone 8.20 cells, 19 h incubation; class symbols; read-out: Activity Rating (Aβ42 cellular IC50)

IC50	Compound
1.5 to 9.9 nM	CNc1nc(Nc2ccc(-n3cnc(Cl)c3)c(OC)c2)nc2c1CCC2c1ccccc1 (single isomer, unassigned) [Example 7A, N^2-(4-(4-chloro-1H-imidazol-1-yl)-3-methoxyphenyl)-N^4-methyl-7-phenyl-6,7-dihydro-5H-cyclopenta[d]pyrimidine-2,4-diamine]
10 to 100 nM	CNc1nc(Nc2ccc(-n3cnc(Cl)c3)c(OC)c2)nc2c1CCC2c1ccccc1 (single isomer, unassigned) [Example 7B, N^2-(4-(4-chloro-1H-imidazol-1-yl)-3-methoxyphenyl)-N^4-methyl-7-phenyl-6,7-dihydro-5H-cyclopenta[d]pyrimidine-2,4-diamine]
1.5 to 9.9 nM	Cc1ncnn1-c1ccc(Nc2nc3c(c(N4CC(F)(F)C4)n2)CCC3c2ccc(F)cc2)cc1F (single isomer, unassigned) [Example 16A, 4-(3,3-difluoroazetidin-1-yl)-N-(3-fluoro-4-(5-methyl-1H-1,2,4-triazol-1-yl)phenyl)-7-(4-fluorophenyl)-6,7-dihydro-5H-cyclopenta[d]pyrimidin-2-amine]
100 to 1000 nM	Cc1ncnn1-c1ccc(Nc2nc3c(c(N4CC(F)(F)C4)n2)CCC3c2ccc(F)cc2)cc1F (single isomer, unassigned) [Example 16B, 4-(3,3-difluoroazetidin-1-yl)-N-(3-fluoro-4-(5-methyl-1H-1,2,4-triazol-1-yl)phenyl)-7-(4-fluorophenyl)-6,7-dihydro-5H-cyclopenta[d]pyrimidin-2-amine]

Continued, compound first:

Compound	IC50
CNc1nc(Nc2ccc(-n3ncnc3C)c(F)c2)nc2c1CCC2c1ccccc1 (single isomer, unassigned) [Example 3A, N^2-(3-fluoro-4-(5-methyl-1H-1,2,4-triazol-1-yl)phenyl)-N^4-methyl-7-phenyl-6,7-dihydro-5H-cyclopenta[d]pyrimidine-2,4-diamine]	1.5 to 9.9 nM
CNc1nc(Nc2ccc(-n3ncnc3C)c(F)c2)nc2c1CCC2c1ccccc1 (single isomer, unassigned) [Example 3B, N^2-(3-fluoro-4-(5-methyl-1H-1,2,4-triazol-1-yl)phenyl)-N^4-methyl-7-phenyl-6,7-dihydro-5H-cyclopenta[d]pyrimidine-2,4-diamine]	10 to 100 nM
COc1cc(Nc2nc3c(c(N(C)C)n2)CCC3c2ccccc2)ccc1-n1cnc(Cl)c1 (single isomer, unassigned) [Example 4A, N^2-(4-(4-chloro-1H-imidazol-1-yl)-3-methoxyphenyl)-N^4,N^4-dimethyl-7-phenyl-6,7-dihydro-5H-cyclopenta[d]pyrimidine-2,4-diamine]	1.5 to 9.9 nM
COc1cc(Nc2nc3c(c(N(C)C)n2)CCC3c2ccccc2)ccc1-n1cnc(Cl)c1 (single isomer, unassigned) [Example 4B, N^2-(4-(4-chloro-1H-imidazol-1-yl)-3-methoxyphenyl)-N^4,N^4-dimethyl-7-phenyl-6,7-dihydro-5H-cyclopenta[d]pyrimidine-2,4-diamine]	10 to 100 nM
CCN(C)c1nc(Nc2ccc(-n3cnc(Cl)c3)c(OC)c2)nc2c1CCC2c1ccccc1 (single isomer, unassigned) [Example 5A, N^2-(4-(4-chloro-1H-imidazol-1-yl)-3-methoxyphenyl)-N^4-ethyl-N^4-methyl-7-phenyl-6,7-dihydro-5H-cyclopenta[d]pyrimidine-2,4-diamine]	1.5 to 9.9 nM
CCN(C)c1nc(Nc2ccc(-n3cnc(Cl)c3)c(OC)c2)nc2c1CCC2c1ccccc1 (single isomer, unassigned) [Example 5B, N^2-(4-(4-chloro-1H-imidazol-1-yl)-3-methoxyphenyl)-N^4-ethyl-N^4-methyl-7-phenyl-6,7-dihydro-5H-cyclopenta[d]pyrimidine-2,4-diamine]	10 to 100 nM
COc1cc(Nc2nc3c(c(N4CCC4)n2)CCC3c2ccccc2)ccc1-n1cnc(Cl)c1 (single isomer, unassigned) [Example 6A, 4-(azetidin-1-yl)-N-(4-(4-chloro-1H-imidazol-1-yl)-3-methoxyphenyl)-7-phenyl-6,7-dihydro-5H-cyclopenta[d]pyrimidin-2-amine]	1.5 to 9.9 nM
COc1cc(Nc2nc3c(c(N4CCC4)n2)CCC3c2ccccc2)ccc1-n1cnc(Cl)c1 (single isomer, unassigned) [Example 6B, 4-(azetidin-1-yl)-N-(4-(4-chloro-1H-imidazol-1-yl)-3-methoxyphenyl)-7-phenyl-6,7-dihydro-5H-cyclopenta[d]pyrimidin-2-amine]	10 to 100 nM
COc1cc(Nc2nc3c(c(N4CCCC4C)n2)CCC3c2ccc(F)cc2)ccc1-n1cnc(Cl)c1 (single isomer, unassigned) [Example 19, N-(4-(4-chloro-1H-imidazol-1-yl)-3-methoxyphenyl)-7-(4-fluorophenyl)-4-(2-methylpyrrolidin-1-yl)-6,7-dihydro-5H-cyclopenta[d]pyrimidin-2-amine]	10 to 100 nM
